*1 amine or outer side, *2 acyl side, *3 side chain or, on linkers, in order; H or OH if unused. Where a SMILES comes first, the peptide text is derived from it. Side-chain parts run from the residue outwards. [ ]: non-standard residue; d: D form. The star is where a group is joined. C16 diacid = O=C(O)CCCCCCCCCCCCCCC(=O)*; γGlu = O=C(O)[C@H](CCC(=O)[*:2])N[*:1]; αMeL = CC(C)C[C@](C)(N)C(=O)O; Aib = CC(C)(N)C(=O)O
Tests used:
[1] = target: T1, human CRF2a receptor (Homo sapiens, UniProt Q13324); experiment: Activity at human CRF2a receptor, cAMP functional assay in TeloHEAC cells; format: cell-based; settings: TeloHEAC cells stably expressing human CRF2a receptor, relative to urocortin 2 (100 nM = 100%)
T1 construct: expressed in transfected cells; host or cells: TeloHEAC cells
T1 sequence (Q13324 1-411): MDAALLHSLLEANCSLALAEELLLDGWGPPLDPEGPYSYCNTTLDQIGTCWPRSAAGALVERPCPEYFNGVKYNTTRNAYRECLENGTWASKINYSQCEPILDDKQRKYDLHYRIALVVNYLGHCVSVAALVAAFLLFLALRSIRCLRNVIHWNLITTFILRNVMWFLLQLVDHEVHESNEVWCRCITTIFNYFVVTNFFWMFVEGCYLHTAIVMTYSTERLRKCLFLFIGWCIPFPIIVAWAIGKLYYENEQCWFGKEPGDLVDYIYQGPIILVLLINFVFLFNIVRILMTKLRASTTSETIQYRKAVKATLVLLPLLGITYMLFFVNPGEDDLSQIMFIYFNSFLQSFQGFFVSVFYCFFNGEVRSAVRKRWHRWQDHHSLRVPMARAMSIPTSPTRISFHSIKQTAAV
Outline: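 cAMP accumulation was measured by HTRF 665/620 nm ratio after 30 min at 37° C compound exposure (16 twofold dilutions) of CRF2a-expressing TeloHEAC cells, 10000/well, in HEPES-buffered HBSS plus IBMX. Activity was normalised to urocortin 2 at 100 nM (100%), and EC50 was the concentration giving half-maximal activation.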

[2] = target: T2, CFR1R receptor (Homo sapiens, UniProt P34998); experiment: Activity at anti-target CFR1R receptor, cAMP assay in CRF1R-overexpression CHO-K1 cells; format: cell-based; settings: 100% = Sauvagine at 100 nM; for EC50: cAMP
T2 construct: host or cells: CHO-K1 (clone 2)
T2 sequence (P34998 24-415): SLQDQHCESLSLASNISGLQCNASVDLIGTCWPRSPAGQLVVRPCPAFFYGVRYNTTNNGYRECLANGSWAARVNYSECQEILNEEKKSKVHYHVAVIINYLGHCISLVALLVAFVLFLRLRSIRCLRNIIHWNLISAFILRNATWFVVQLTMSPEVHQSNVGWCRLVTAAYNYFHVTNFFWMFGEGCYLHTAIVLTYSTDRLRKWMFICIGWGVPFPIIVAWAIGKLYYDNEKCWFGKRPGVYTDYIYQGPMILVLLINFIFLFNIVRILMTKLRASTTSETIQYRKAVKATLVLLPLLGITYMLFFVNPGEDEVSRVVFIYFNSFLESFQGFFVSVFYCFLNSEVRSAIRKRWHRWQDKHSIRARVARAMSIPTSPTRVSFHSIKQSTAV
Outline: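 Clone 2 cells were cultured in F12 (Hams)/10% FBS/400 μg/ml G418 at 37° C./5% CO2, frozen in medium with 10% DMSO, and thawed vials used. The protocol followed the TeloHAEC procedure, with 4000 cells/well final and Sauvagine at 100 nM defining 100% activation.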

| SMILES | EC50 [1] | Emax (% I) [2] | EC50 [2] |
| --- | --- | --- | --- |
| CC[C@H](C)[C@H](NC(C)=O)C(=O)N[C@H](C(=O)N[C@@H](CC(C)C)C(=O)N[C@@H](CO)C(=O)N[C@@H](CC(C)C)C(=O)N[C@@H](CC(=O)O)C(=O)N[C@@H](C(=O)N1CCC[C@H]1C(=O)N[C@H](C(=O)N[C@@H](CCCCN)C(=O)N[C@@H](CC(C)C)C(=O)N[C@@H](CCCCNC(=O)CC[C@H](NC(=O)CCCCCCCCCCCCCCC(=O)O)C(=O)O)C(=O)N[C@@H](CCCCN)C(=O)N[C@H](C(=O)N[C@@H](CC(C)C)C(=O)N[C@@H](CC(C)C)C(=O)N[C@@H](CCC(=O)O)C(=O)N[C@@H](CCC(N)=O)C(=O)N[C@@H](CCC(=O)O)C(=O)N[C@@H](CCCCN)C(=O)N[C@@H](CCC(N)=O)C(=O)N[C@@H](CCCCN)C(=O)N[C@@H](CCCCN)C(=O)N[C@@H](CCC(N)=O)C(=O)N[C@@H](CCCNC(=N)N)C(=O)N[C@@H](CCC(=O)O)C(=O)N[C@@H](CCC(N)=O)C(=O)N[C@@H](C)C(=O)N[C@@H](CCC(=O)O)C(=O)N[C@H](C(=O)N[C@@H](CC(N)=O)C(=O)N[C@H](C(=O)N[C@@H](CCC(N)=O)C(=O)N[C@H](C(=O)N[C@@H](CC(C)C)C(=O)N[C@@H](C)C(=O)N[C@@H](CCC(N)=O)C(=O)N[C@H](C(N)=O)C(C)C)[C@@H](C)CC)C(C)C)[C@@H](C)O)[C@@H](C)CC)[C@@H](C)CC)C(C)C)C(C)C [compound 48] (Ac-IVLSLD[dV]PIKLK([γGlu-C16 diacid])KILLEQEKQKKQREQAETNVQILAQV-NH2) | 1.35 nM | 4 % I | > 250 nM |
| CC[C@H](C)[C@H](NC(C)=O)C(=O)N[C@H](C(=O)N[C@@H](CC(C)C)C(=O)N[C@@H](CO)C(=O)N[C@@H](CC(C)C)C(=O)N[C@@H](CC(=O)O)C(=O)N[C@@H](C(=O)N1CCC[C@H]1C(=O)N[C@H](C(=O)N[C@@H](CCCCN)C(=O)N[C@@](C)(CC(C)C)C(=O)N[C@@H](CCCCNC(=O)CC[C@H](NC(=O)CCCCCCCCCCCCCCC(=O)O)C(=O)O)C(=O)N[C@@H](CCCCN)C(=O)N[C@H](C(=O)N[C@@H](CC(C)C)C(=O)N[C@@H](CC(C)C)C(=O)N[C@@H](CCC(=O)O)C(=O)N[C@@H](CCC(N)=O)C(=O)N[C@@H](CCC(=O)O)C(=O)N[C@@H](CCCCN)C(=O)N[C@@H](CCC(N)=O)C(=O)N[C@@H](CCCCN)C(=O)N[C@@H](CCCCN)C(=O)N[C@@H](CCC(N)=O)C(=O)N[C@@H](CCCNC(=N)N)C(=O)N[C@@H](CCC(=O)O)C(=O)N[C@@H](CCC(N)=O)C(=O)N[C@@H](C)C(=O)N[C@@H](CCC(=O)O)C(=O)N[C@H](C(=O)N[C@@H](CC(=O)O)C(=O)N[C@@H](CCCCN)C(=O)N[C@@H](CCC(N)=O)C(=O)N[C@H](C(=O)N[C@@H](CC(C)C)C(=O)N[C@@H](C)C(=O)N[C@@H](CCC(N)=O)C(=O)N[C@H](C(N)=O)C(C)C)[C@@H](C)CC)[C@@H](C)O)[C@@H](C)CC)[C@@H](C)CC)C(C)C)C(C)C [compound 53] (Ac-IVLSLD[dV]PIK[αMeL]K([γGlu-C16 diacid])KILLEQEKQKKQREQAETDKQILAQV-NH2) | 8.05 nM | 5 % I | > 250 nM |

Now those with a lower EC50 [1], led by results:

| EC50 [1] | Emax (% I) [2] | EC50 [2] | SMILES |
| --- | --- | --- | --- |
| 0.92 nM | −3 % I | > 250 nM | CC[C@H](C)[C@H](NC(C)=O)C(=O)N[C@H](C(=O)N[C@@H](CC(C)C)C(=O)N[C@@H](CO)C(=O)N[C@@H](CC(C)C)C(=O)N[C@@H](CC(=O)O)C(=O)N[C@H](C(=O)N1CCC[C@H]1C(=O)N[C@H](C(=O)N[C@@H](CCCCN)C(=O)N[C@@](C)(CC(C)C)C(=O)N[C@@H](CCCCNC(=O)CC[C@H](NC(=O)CCCCCCCCCCCCCCC(=O)O)C(=O)O)C(=O)N[C@@H](CCCCN)C(=O)N[C@H](C(=O)N[C@@H](CC(C)C)C(=O)N[C@@H](CC(C)C)C(=O)N[C@@H](CCC(=O)O)C(=O)N[C@@H](CCC(N)=O)C(=O)N[C@@H](CCC(=O)O)C(=O)N[C@@H](CCCCN)C(=O)N[C@@H](CCC(N)=O)C(=O)N[C@@H](CCCCN)C(=O)N[C@@H](CCCCN)C(=O)N[C@@H](CCC(N)=O)C(=O)N[C@@H](CCCNC(=N)N)C(=O)N[C@@H](CCC(=O)O)C(=O)N[C@@H](CCC(N)=O)C(=O)N[C@@H](C)C(=O)N[C@@H](CCC(=O)O)C(=O)N[C@H](C(=O)N[C@@H](CC(N)=O)C(=O)N[C@H](C(=O)N[C@@H](CCC(N)=O)C(=O)N[C@H](C(=O)N[C@@H](CC(C)C)C(=O)N[C@@H](C)C(=O)N[C@@H](CCC(N)=O)C(=O)N[C@H](C(N)=O)C(C)C)[C@@H](C)CC)C(C)C)[C@@H](C)O)[C@@H](C)CC)[C@@H](C)CC)C(C)C)C(C)C [compound 49] (Ac-IVLSLDVPIK[αMeL]K([γGlu-C16 diacid])KILLEQEKQKKQREQAETNVQILAQV-NH2) |
| 0.7 nM | 6 % I | > 250 nM | CC[C@H](C)[C@H](NC(=O)[C@H](CCC(N)=O)NC(=O)C(C)(C)NC(=O)[C@H](CC(N)=O)NC(=O)[C@@H](NC(=O)[C@H](CCC(=O)O)NC(=O)[C@H](C)NC(=O)[C@H](CCC(N)=O)NC(=O)[C@H](CCC(=O)O)NC(=O)[C@H](CCCNC(=N)N)NC(=O)[C@H](CCC(N)=O)NC(=O)[C@H](CCCCN)NC(=O)[C@H](CCCCN)NC(=O)[C@H](CCC(N)=O)NC(=O)[C@H](CCCCN)NC(=O)[C@H](CCC(=O)O)NC(=O)[C@H](CCC(N)=O)NC(=O)[C@H](CCC(=O)O)NC(=O)[C@H](CC(C)C)NC(=O)[C@H](CC(C)C)NC(=O)[C@@H](NC(=O)[C@H](CCCCN)NC(=O)[C@H](CCCCNC(=O)CC[C@H](NC(=O)CCCCCCCCCCCCCCC(=O)O)C(=O)O)NC(=O)[C@](C)(CC(C)C)NC(=O)[C@H](CCCCN)NC(=O)[C@@H](NC(=O)[C@@H]1CCCN1C(=O)[C@H](NC(=O)[C@H](CC(=O)O)NC(=O)[C@H](CC(C)C)NC(=O)[C@H](CO)NC(=O)[C@H](CC(C)C)NC(=O)[C@@H](NC(C)=O)C(C)C)C(C)C)[C@@H](C)CC)[C@@H](C)CC)[C@@H](C)O)C(=O)N[C@@H](CC(C)C)C(=O)N[C@@H](C)C(=O)N[C@@H](CCC(N)=O)C(=O)N[C@H](C(N)=O)C(C)C [compound 46] (Ac-VLSLD[dV]PIK[αMeL]K([γGlu-C16 diacid])KILLEQEKQKKQREQAETN[Aib]QILAQV-NH2) |
| 0.26 nM | 9 % I | > 250 nM | CC[C@H](C)[C@H](NC(C)=O)C(=O)N[C@H](C(=O)N[C@@H](CC(C)C)C(=O)N[C@@H](CO)C(=O)N[C@@H](CC(C)C)C(=O)N[C@@H](CC(=O)O)C(=O)N[C@@H](C(=O)N1CCC[C@H]1C(=O)N[C@H](C(=O)N[C@@H](CCCCN)C(=O)N[C@@](C)(CC(C)C)C(=O)N[C@@H](CCCCNC(=O)CC[C@H](NC(=O)CCCCCCCCCCCCCCC(=O)O)C(=O)O)C(=O)N[C@@H](CCCCN)C(=O)N[C@H](C(=O)N[C@@H](CC(C)C)C(=O)N[C@@H](CC(C)C)C(=O)N[C@@H](CCC(=O)O)C(=O)N[C@@H](CCC(N)=O)C(=O)N[C@@H](CCC(=O)O)C(=O)N[C@@H](CCCCN)C(=O)N[C@@H](CCC(N)=O)C(=O)N[C@@H](CCCCN)C(=O)N[C@@H](CCCCN)C(=O)N[C@@H](CCC(N)=O)C(=O)N[C@@H](CCCNC(=N)N)C(=O)N[C@@H](CCC(=O)O)C(=O)N[C@@H](CCC(N)=O)C(=O)N[C@@H](C)C(=O)N[C@@H](CCC(=O)O)C(=O)N[C@H](C(=O)N[C@@H](CC(N)=O)C(=O)N[C@H](C(=O)N[C@@H](CCC(N)=O)C(=O)N[C@H](C(=O)N[C@@H](CC(C)C)C(=O)N[C@@H](C)C(=O)N[C@@H](CCC(N)=O)C(=O)N[C@H](C(N)=O)C(C)C)[C@@H](C)CC)C(C)C)[C@@H](C)O)[C@@H](C)CC)[C@@H](C)CC)C(C)C)C(C)C [compound 50] (Ac-IVLSLD[dV]PIK[αMeL]K([γGlu-C16 diacid])KILLEQEKQKKQREQAETNVQILAQV-NH2) |
